Measurements as given in ChEMBL document CHEMBL1145739, “N-(3-phenylsulfonyl-3-piperidinoyl)-phenylalanine derivatives as potent, selective VLA-4 antagonists” (Bioorg Med Chem Lett, 2003).

How the values were obtained:
Integrin alpha-4/beta-1 = Integrin alpha-4/beta-1 (Homo sapiens, UniProt P05556+P13612); assay: Binding affinity towards VLA-4 (alpha4 beta-1) receptor in human Jurkat cells using [125I]VCAM-Ig as radioligand; assay type: cell-based
Integrin alpha-4/beta-7 = target: T1, Integrin alpha-4/beta-7 (Homo sapiens, UniProt P13612+P26010); assay: Binding affinity towards […] receptor in human RPMI-8866 B-cell line using [125I]MAdCAM-Ig as radioligand
T1 sequence (P13612 whole entry): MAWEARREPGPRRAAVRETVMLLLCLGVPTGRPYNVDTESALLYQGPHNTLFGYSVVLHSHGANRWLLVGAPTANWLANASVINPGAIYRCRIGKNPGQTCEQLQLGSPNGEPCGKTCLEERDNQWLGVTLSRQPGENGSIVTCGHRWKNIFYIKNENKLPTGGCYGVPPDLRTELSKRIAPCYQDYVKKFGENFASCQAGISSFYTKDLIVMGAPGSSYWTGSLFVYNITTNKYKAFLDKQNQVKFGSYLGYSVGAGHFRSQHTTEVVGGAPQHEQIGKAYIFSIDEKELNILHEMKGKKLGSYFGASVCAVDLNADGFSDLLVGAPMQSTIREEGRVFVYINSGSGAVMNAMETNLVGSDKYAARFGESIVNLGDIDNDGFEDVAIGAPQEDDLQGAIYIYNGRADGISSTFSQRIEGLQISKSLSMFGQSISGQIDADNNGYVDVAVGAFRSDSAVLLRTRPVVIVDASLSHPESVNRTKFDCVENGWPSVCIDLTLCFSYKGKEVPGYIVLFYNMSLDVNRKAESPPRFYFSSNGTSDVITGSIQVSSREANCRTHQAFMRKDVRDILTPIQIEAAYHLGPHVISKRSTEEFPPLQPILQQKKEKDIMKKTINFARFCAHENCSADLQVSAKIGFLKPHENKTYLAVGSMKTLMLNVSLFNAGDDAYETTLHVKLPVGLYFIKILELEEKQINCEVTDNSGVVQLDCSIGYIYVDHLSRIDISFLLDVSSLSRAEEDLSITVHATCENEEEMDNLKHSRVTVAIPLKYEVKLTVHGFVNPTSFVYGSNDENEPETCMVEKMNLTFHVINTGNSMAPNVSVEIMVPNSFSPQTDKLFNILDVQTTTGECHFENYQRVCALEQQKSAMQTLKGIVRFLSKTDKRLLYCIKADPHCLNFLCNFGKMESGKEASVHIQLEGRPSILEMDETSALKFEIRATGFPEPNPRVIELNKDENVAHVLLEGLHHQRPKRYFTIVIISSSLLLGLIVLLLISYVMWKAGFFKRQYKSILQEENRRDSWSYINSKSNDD
T1 sequence (P26010 whole entry): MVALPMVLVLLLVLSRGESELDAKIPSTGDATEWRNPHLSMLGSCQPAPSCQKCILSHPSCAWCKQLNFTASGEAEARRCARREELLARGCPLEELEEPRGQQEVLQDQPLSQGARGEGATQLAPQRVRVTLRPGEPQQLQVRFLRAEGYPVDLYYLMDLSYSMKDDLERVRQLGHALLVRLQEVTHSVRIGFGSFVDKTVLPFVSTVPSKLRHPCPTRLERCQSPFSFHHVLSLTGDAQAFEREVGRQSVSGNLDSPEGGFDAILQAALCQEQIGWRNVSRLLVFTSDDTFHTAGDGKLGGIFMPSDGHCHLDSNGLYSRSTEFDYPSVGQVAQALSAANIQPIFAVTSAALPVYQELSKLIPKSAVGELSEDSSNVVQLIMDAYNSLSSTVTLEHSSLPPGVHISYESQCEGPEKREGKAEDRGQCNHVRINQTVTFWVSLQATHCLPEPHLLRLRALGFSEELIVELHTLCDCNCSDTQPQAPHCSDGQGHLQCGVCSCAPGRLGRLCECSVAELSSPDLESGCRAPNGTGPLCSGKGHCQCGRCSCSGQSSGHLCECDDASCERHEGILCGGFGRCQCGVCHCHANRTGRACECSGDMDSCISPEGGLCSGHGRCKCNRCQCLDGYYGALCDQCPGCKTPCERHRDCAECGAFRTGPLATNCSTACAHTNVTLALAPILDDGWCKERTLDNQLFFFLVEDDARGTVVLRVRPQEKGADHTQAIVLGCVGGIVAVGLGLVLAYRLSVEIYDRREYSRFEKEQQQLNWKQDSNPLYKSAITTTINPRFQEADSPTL

[1] = target: Integrin alpha-4/beta-7 (Homo sapiens) (UniProt P13612+P26010); assay: Percent inhibition of [125I]VCAM-Ig binding to human integrin alpha4-beta7 receptor of RPMI-8866 cells at 100 nM; assay type: cell-based

Sequence of Integrin alpha-4/beta-1 (P05556 whole entry, one chain of several): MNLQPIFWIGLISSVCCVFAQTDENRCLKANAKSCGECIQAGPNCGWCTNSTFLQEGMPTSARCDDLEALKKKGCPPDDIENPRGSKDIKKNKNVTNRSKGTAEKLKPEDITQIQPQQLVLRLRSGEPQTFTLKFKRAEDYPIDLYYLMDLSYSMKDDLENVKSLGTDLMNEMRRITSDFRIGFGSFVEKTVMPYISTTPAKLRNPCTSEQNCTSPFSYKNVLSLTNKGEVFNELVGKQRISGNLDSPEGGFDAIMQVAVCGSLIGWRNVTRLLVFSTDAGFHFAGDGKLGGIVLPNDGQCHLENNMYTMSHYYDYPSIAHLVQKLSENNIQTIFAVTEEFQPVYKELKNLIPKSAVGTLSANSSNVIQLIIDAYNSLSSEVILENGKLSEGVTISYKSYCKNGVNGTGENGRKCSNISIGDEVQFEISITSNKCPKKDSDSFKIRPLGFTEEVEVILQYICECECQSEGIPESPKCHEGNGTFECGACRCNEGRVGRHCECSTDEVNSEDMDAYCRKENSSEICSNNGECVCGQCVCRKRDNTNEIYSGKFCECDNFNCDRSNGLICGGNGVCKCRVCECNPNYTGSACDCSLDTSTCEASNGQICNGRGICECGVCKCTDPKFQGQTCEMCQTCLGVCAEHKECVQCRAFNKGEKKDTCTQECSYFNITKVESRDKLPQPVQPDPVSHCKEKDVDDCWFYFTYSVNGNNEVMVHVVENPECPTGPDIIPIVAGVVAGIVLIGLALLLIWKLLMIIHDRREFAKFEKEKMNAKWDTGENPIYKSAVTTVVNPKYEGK

SMILES	IC50 (Integrin alpha-4/beta-1) [nM]	IC50 (Integrin alpha-4/beta-7) [nM]	inhibition [1] [%]
COc1cccc(OC)c1-c1ccc(C[C@H](NC(=O)C2(S(=O)(=O)c3ccc(F)cc3)CCCC2)C(=O)O)cc1	0.07	5	–
O=C(O)[C@H](Cc1ccc(-c2ccccc2)cc1)NC(=O)C1(S(=O)(=O)c2ccccc2Br)CCCCC1	45	–	13
O=C(O)[C@H](Cc1ccc(-c2ccccc2)cc1)NC(=O)C1(S(=O)(=O)c2ccccc2)CCCC1	28	–	18
COc1ccccc1-c1ccc(C[C@H](NC(=O)C2(S(=O)(=O)c3ccccc3)CCCN(C)C2)C(=O)O)cc1 (stereo partly specified)	6.6	5790	–
COc1cccc(OC)c1-c1ccc(C[C@H](NC(=O)C2(S(C)(=O)=O)CCCNC2)C(=O)O)cc1 (stereo partly specified)	0.19	21	–
O=C(O)[C@H](Cc1ccc(-c2ccccc2)cc1)NC(=O)C1(S(=O)(=O)Cc2ccccc2)CCCCC1	65	–	14
COc1cccc(OC)c1-c1ccc(C[C@H](NC(=O)C2(S(=O)(=O)c3ccccc3)CCC2)C(=O)O)cc1	0.17	3.2	–
COc1cccc(OC)c1-c1ccc(C[C@H](NC(=O)C2(S(=O)(=O)c3cccc(Br)c3)CCCNC2)C(=O)O)cc1 (stereo partly specified)	0.13	83	–
COc1ccccc1-c1ccc(C[C@H](NC(=O)C2(S(=O)(=O)c3ccccc3)CC[S+]([O-])CC2)C(=O)O)cc1 (stereo partly specified)	4.4	318	–
CCN1CCC(C(=O)N[C@@H](Cc2ccc(-c3ccccc3OC)cc2)C(=O)O)(S(=O)(=O)c2ccccc2)CC1	31	1230	–
COc1cccc(OC)c1-c1ccc(C[C@H](NC(=O)C2(S(=O)(=O)c3ccccc3)CCCCC2)C(=O)O)cc1	0.19	13	–
COc1ccccc1-c1ccc(C[C@H](NC(=O)C2(S(=O)(=O)c3ccc(F)cc3)CCCC2)C(=O)O)cc1	0.27	40	–
COc1cccc(OC)c1-c1ccc(C[C@H](NC(=O)C2(S(=O)(=O)c3ccc(N4CCCC4)cc3)CCCNC2)C(=O)O)cc1 (stereo partly specified)	0.36	536	–
COc1ccccc1-c1ccc(C[C@H](NC(=O)C2(S(=O)(=O)c3ccccc3)CCOC2)C(=O)O)cc1 (stereo partly specified)	0.77	45	–
COc1ccccc1-c1ccc(C[C@H](NC(=O)C2(S(=O)(=O)C3CCCC3)CCCC2)C(=O)O)cc1	1.2	147	–
COc1cccc(OC)c1-c1ccc(C[C@H](NC(=O)C2(S(=O)(=O)c3ccccc3)CCCC2)C(=O)O)cc1	0.11	5	–
COc1cccc(OC)c1-c1ccc(C[C@H](NC(=O)C2(S(=O)(=O)c3ccccc3)CCOC2)C(=O)O)cc1 (stereo partly specified)	0.1	5.2	–
COc1cccc(OC)c1-c1ccc(C[C@H](NC(=O)C2(S(=O)(=O)CCN3CCOCC3)CCCNC2)C(=O)O)cc1 (stereo partly specified)	0.67	257	–
COc1ccccc1-c1ccc(C[C@H](NC(=O)C2(S(=O)(=O)c3ccccc3)CCCNC2)C(=O)O)cc1 (stereo partly specified)	0.48	622	–

The remaining molecules from weak to strong by IC50 (Integrin alpha-4/beta-1), led by results:

IC50 (Integrin alpha-4/beta-1) [nM]	IC50 (Integrin alpha-4/beta-7) [nM]	inhibition [1] [%]	SMILES
735	–	7	O=C(O)[C@H](Cc1ccc(-c2ccccc2)cc1)NC(=O)C1(S(=O)(=O)c2cccc3ccccc23)CCCC1
680	7340	–	O=C(O)[C@H](Cc1ccc(-c2ccccc2)cc1)NC(=O)C1(S(=O)(=O)c2ccccc2)Cc2ccccc2C1
150	–	–	CCCCCCCCS(=O)(=O)C1(C(=O)N[C@@H](Cc2ccc(-c3ccccc3)cc2)C(=O)O)CCCC1
105	–	8	O=C(O)[C@H](Cc1ccc(-c2ccccc2)cc1)NC(=O)C1(S(=O)(=O)c2ccccc2Br)CCCC1
56	9220	–	COc1ccccc1-c1ccc(C[C@H](NC(=O)C2(S(=O)(=O)c3ccccc3)CCN(C(C)(C)C)CC2)C(=O)O)cc1
53	–	0	Cc1ccc(S(=O)(=O)C2(C(=O)N[C@@H](Cc3ccc(-c4ccccc4)cc3)C(=O)O)CCCCC2)cc1
51	9180	–	CCCCN1CCC(C(=O)N[C@@H](Cc2ccc(-c3ccccc3OC)cc2)C(=O)O)(S(=O)(=O)c2ccccc2)CC1
23	–	20	O=C(O)[C@H](Cc1ccc(-c2ccccc2)cc1)NC(=O)C1(S(=O)(=O)c2ccc(Br)cc2)CCCC1
23	1260	–	COc1ccccc1-c1ccc(C[C@H](NC(=O)C2(S(=O)(=O)c3ccccc3)CCN(c3ccccc3)CC2)C(=O)O)cc1
20	1900	–	COc1ccccc1-c1ccc(C[C@H](NC(=O)C2(S(=O)(=O)c3ccccc3)CCNCC2)C(=O)O)cc1
15	521	–	COc1ccccc1-c1ccc(C[C@H](NC(=O)C2(S(=O)(=O)Nc3ccccc3)CCCC2)C(=O)O)cc1
4.1	128	–	COc1ccccc1-c1ccc(C[C@H](NC(=O)C2(S(=O)(=O)c3ccccc3)CCSCC2)C(=O)O)cc1
3	2000	–	COc1ccccc1-c1ccc(C[C@H](NC(=O)C2(S(=O)(=O)c3ccccc3)CCN(C)CC2)C(=O)O)cc1
1.3	70	–	COc1ccccc1-c1ccc(C[C@H](NC(=O)C2(S(=O)(=O)c3ccccc3)CCS(=O)(=O)CC2)C(=O)O)cc1
1.2	16	–	COc1ccccc1-c1ccc(C[C@H](NC(=O)C2(S(=O)(=O)c3ccccc3)CCC2)C(=O)O)cc1
1.1	466	–	COc1cccc(OC)c1-c1ccc(C[C@H](NC(=O)C2(S(=O)(=O)c3ccccc3)CCN(C)CC2)C(=O)O)cc1
0.97	54	–	CCN(CC)S(=O)(=O)C1(C(=O)N[C@@H](Cc2ccc(-c3ccccc3OC)cc2)C(=O)O)CCCC1
0.77	436	–	COc1cccc(OC)c1-c1ccc(C[C@H](NC(=O)C2(S(=O)(=O)Cc3ccccc3)CCCNC2)C(=O)O)cc1 (stereo partly specified)
0.55	150	–	COc1ccccc1-c1ccc(C[C@H](NC(=O)C2(S(=O)(=O)c3ccccc3)CCOCC2)C(=O)O)cc1
0.53	58	–	CCS(=O)(=O)C1(C(=O)N[C@@H](Cc2ccc(-c3ccccc3OC)cc2)C(=O)O)CCCC1
0.46	97	–	COc1cccc(OC)c1-c1ccc(C[C@H](NC(=O)C2(S(=O)(=O)c3cn(C)cn3)CCCNC2)C(=O)O)cc1 (stereo partly specified)
0.39	388	–	COc1cccc(OC)c1-c1ccc(C[C@H](NC(=O)C2(S(=O)(=O)c3ccccc3N3CCCC3)CCCNC2)C(=O)O)cc1 (stereo partly specified)
0.37	179	–	COc1cccc(OC)c1-c1ccc(C[C@H](NC(=O)C2(S(=O)(=O)CCNCCCN(C)C)CCCNC2)C(=O)O)cc1 (stereo partly specified)
0.22	5	–	COc1cccc(OC)c1-c1ccc(C[C@H](NC(=O)C2(S(=O)(=O)c3ccccc3)CCSCC2)C(=O)O)cc1
0.19	94	–	COc1cccc(OC)c1-c1ccc(C[C@H](NC(=O)C2(S(=O)(=O)c3ccc(Br)cc3)CCCNC2)C(=O)O)cc1 (stereo partly specified)
0.15	96	–	COc1cccc(OC)c1-c1ccc(C[C@H](NC(=O)C2(S(=O)(=O)c3ccccc3Br)CCCNC2)C(=O)O)cc1 (stereo partly specified)
0.14	46	–	COc1cccc(OC)c1-c1ccc(C[C@H](NC(=O)C2(S(=O)(=O)c3cncn3C)CCCNC2)C(=O)O)cc1 (stereo partly specified)
